IC50 data for 24 compounds are collected here from BindingDB's records for doi:10.1021/jm00089a012 (Merck Sharp and Dohme Research Laboratories, 1992).

This assay is described as follows: In vitro for the binding affinity against sigma receptor by using [3H]DTG as radioligand in guinea pig cerebellum.
A word on the IC50: it is the concentration at which inhibition is half-maximal. Low readings indicate greater potency in that assay, high ones weaker potency in that assay. Turning to `CCCN1CCC2=C(CCc3ccccc32)C1`, the IC50 stood at 21 nM. In turn, `CCCCN1CCC2c3ccccc3CCCC2C1` (centres undefined) showed an IC50 of 2.1 nM. As for `c1coc(CN2CC[C@H]3c4ccccc4CC[C@H]3C2)c1`, the IC50 was determined as 6.6 nM. `Clc1ccc(CN2CC[C@H]3c4ccccc4CC[C@H]3C2)cc1`: the IC50 stood at 4.7 nM. On to `CCCCN1CCC2=C(Cc3ccccc32)C1`, for which the IC50 is 1.9 nM. The result for `c1ccc(CCCN2CC[C@H]3c4ccccc4CC[C@H]3C2)cc1` reads 4.3 nM.

`c1ccc2c(c1)CC[C@H]1CN(C34C[C@H]5C[C@@H](C3)C[C@@H](C4)C5)CC[C@@H]21` yielded a half-inhibitory concentration (IC50) of 2.3 nM. For `c1ccc2c(c1)CC[C@H]1CN(C3CCCCC3)CC[C@@H]21`, the IC50 amounted to 0.251 nM.

Take `c1ccc(CCN2CC[C@H]3c4ccccc4CC[C@H]3C2)cc1`: the IC50 was found to be 0.324 nM. In the case of `c1csc(CN2CC[C@H]3c4ccccc4CC[C@H]3C2)c1`, the half-maximal inhibitory concentration (IC50) was determined as 7.1 nM.

For the compound `c1ccc(CN2CC[C@H]3c4ccccc4CC[C@H]3C2)nc1`, the IC50 was 17 nM.

As to `c1ccc2c(c1)CC[C@H]1CN(CC3CC3)CC[C@@H]21`, the IC50 is 2.5 nM. In turn, `CCCCN1CC[C@H]2c3cc(C)cc(C)c3CC[C@H]2C1` registered an IC50 of 2 nM.

In turn, `c1ccc2c(c1)CC[C@H]1CN(Cc3ccc4ccccc4c3)CC[C@@H]21` displayed an IC50 of 81 nM. The result for `CCCCN1CC[C@@H]2c3ccccc3CC[C@H]2C1` reads 3.1 nM; that for `C=CCN1CC[C@H]2c3ccccc3CC[C@H]2C1`, 4.6 nM.

Compound `CCCCN1CCC2c3ccccc3CC2C1` (centres undefined) showed an IC50 of 11 nM. `CCCN1CC[C@H]2c3ccccc3CC[C@H]2C1` showed an IC50 of 2.6 nM.

`CN1CC[C@@H]2c3ccccc3CC[C@H]2C1` came in with an IC50 of 447 nM. The compound `CCCCN1CC[C@H]2c3ccccc3CC[C@H]2C1` showed an IC50 of 6.3 nM.

Consider `O=[N+]([O-])c1ccc(CN2CC[C@H]3c4ccccc4CC[C@H]3C2)cc1`, for which the IC50 came out at 8.7 nM. Compound `COc1ccc(CN2CC[C@H]3c4ccccc4CC[C@H]3C2)cc1` returned an IC50 of 2 nM. Compound `CN1CC[C@H]2c3ccccc3CC[C@H]2C1` displayed an IC50 of 339 nM.

On to `c1ccc2c(c1)CC[C@H]1CN(C3[C@H]4C[C@@H]5C[C@@H](C[C@H]3C5)C4)CC[C@@H]21` (some centres undefined), for which the IC50 was found to be 2.2 nM.
